Reference: a melting point compilation (Tetko et al.; mined from patent text by program, amines drawn as free bases though some values may be those of a salt)

Compared with `CCn1c(-c2ccc(OC)c(OC)c2)cc(=O)n(CC)c1=O`, `CCOC(=O)c1cn(CC)c2cc(C3CCCCC3)c(OC)cc2c1=O` is higher in melting point: 104 to 107 °C for the first, 154 to 156 °C for the second.

First: CC(=O)C1=CCC2C3CCC4CC=CCC4(C)C3CCC12C (configuration not stated)
Second: CC(=O)NCC1CN(c2ccc(N3CCC(O)(C#N)C(C)(C)C3)c(F)c2)C(=O)O1 (configuration not stated)
The melting point of the first is higher: 143 to 145 °C for the first, 65 to 68 °C for the second.

First: CCOC(=O)Cn1c(-c2ccc3c(c2)OCCO3)nc2ccccc21
Second: CC(=O)Nc1nonc1-c1nc2ccccc2n1CC(=O)c1ccc(Cl)cc1
The melting point of the first is lower: 113 to 114 °C for the first, 202 to 205 °C for the second.

`COc1cccc(CNC(=O)c2nc3ccc(O)cc3c(=O)[nH]2)c1` and `CN(C)CCN1C(=O)c2ccc3[nH]c4ccc(O)cc4c3c2C1=O` cannot be ordered by melting point: 268 to 271 °C for the first, over 260 °C for the second.

Compared with `CCCCc1nc2cnccc2n1Cc1ccc(C(=O)O)cc1`, `CCc1nn(-c2ccc(F)cc2)c2cc(C(=O)O)ccc12` is lower in melting point: 210 °C for the first, 204 to 205 °C for the second.

First: Cn1c(=O)c2c(-c3ccccc3)n(-c3ccccc3N)cc2n(C)c1=O
Second: O=c1oc(-c2cccc(Cl)c2)cc(O)c1SCc1ccccc1
The melting point of the first is higher: over 300 °C for the first, 136 to 137 °C for the second.

Compared with `Cc1nc2c3c(c(C(=O)N(C)CC(C)O)cc2n1C)CCC1(Cc2ccccc2C1)N3` (configuration not stated), `COc1c(CN(C)C)c2c(c3c1OC(C)(C)C3)C(c1ccccc1)=NC(C)(C)C2` is lower in melting point: 258 to 259 °C for the first, 124 to 125 °C for the second.

Compared with `CCOC(=O)C1C(=O)C=C(OC(C)OCC)CC1c1ccc(C)cc1` (configuration not stated), `Cc1ccc(Cn2c(C)cc(C)c(C#N)c2=O)cc1` is higher in melting point: 59 to 60 °C for the first, 178 to 181 °C for the second.

First: Cc1cc2c(cc1Cl)nc(Br)n2[C@@H]1OC[C@@H](O)[C@@H](O)[C@H]1O
Second: Cc1ncccc1-c1cncc(OC2SCC(O)C(O)C2O)c1 (configuration not stated)
The melting point of the first is lower: 150 °C for the first, 204 to 207 °C for the second.

Compared with `O=C(O)CCN1CCCCC1=O`, `O=C(O)CN1CC2(CCCCC2)N(c2ccccc2)CC1=O` is higher in melting point: 105 to 110 °C for the first, 167 to 169 °C for the second.

Compared with `CC1(Cc2ccccc2)Cc2cc(OCC(=O)O)c(Cl)c(Cl)c2C1=O` (configuration not stated), `CCOC(=O)C1=C(C)NC(SCc2ccccc2)=NC1c1cccc([N+](=O)[O-])c1` (configuration not stated) is lower in melting point: 167 to 168 °C for the first, 129 to 130 °C for the second.

First: C[Si](C)(C)c1cccc(NC(=O)c2ccc(C(=O)O)cc2)c1
Second: COc1ccccc1NC=C1C(=O)N(c2ccc(C(=O)O)cc2)N=C1C
The melting point of the first is lower: 211 to 213 °C for the first, over 300 °C for the second.

First: COCCOCn1cc(C(=O)NCc2ccc(Cl)cc2)c(=O)c2cc(CN3CCOCC3)ccc21
Second: COc1cccc([C@H]2O[C@H](CC(=O)NCCCOc3ccc(CC(=O)O)cc3)C(=O)N(CC(C)(C)CO)c3ccc(Cl)cc32)c1OC
The melting point of the first is higher: 150 to 152 °C for the first, 125 to 128 °C for the second.

First: C#Cc1ccc(C=O)cc1
Second: O=S(=O)(N=Cc1ccc(Cl)cc1)c1ccc(Cl)cc1
The melting point of the first is lower: 122 to 123 °C for the first, 128 °C for the second.

Compared with `CCOC(=O)c1cn(-c2cc(OC)c(F)cc2[N+](=O)[O-])c2c(Cl)c(F)c(F)cc2c1=O`, `CCCc1nc(C=O)c(C(=O)OCC)n1Cc1cc2c(cc1Cl)OCO2` is lower in melting point: 244 to 248 °C for the first, 105 °C for the second.

First: CC(=S)Nc1ccc(-c2nc3ccccc3o2)cc1
Second: O=C(Nc1ccc(C(F)(F)F)cc1)Nc1ccc2ncccc2c1
The melting point of the first is lower: 212 to 214 °C for the first, 259 to 263 °C for the second.

First: CC(C)(C)c1cc(-c2nn(CCCBr)c(=O)o2)cc(C(C)(C)C)c1O
Second: Cn1c(=O)oc2cc(CCBr)ccc21
The melting point of the first is higher: 130 to 131 °C for the first, 104 to 106 °C for the second.

First: O=C(O)C(=O)c1ccc(F)c(Br)c1
Second: COc1ccc2sc(C(N)=O)c(SCC(=O)O)c2c1
The melting point of the first is lower: 68 to 73 °C for the first, 126 to 127 °C for the second.

First: Cc1ccc2c(c1)-c1csc(N)c1C2=O
Second: Cc1nc(N)c2nc(-c3ccccc3)cc-2[nH]1
The melting point of the first is lower: 157 to 159 °C for the first, over 280 °C for the second.

`N#CCCc1coc2ccc(Br)cc12` and `CCCC1CCC(O)(c2ccc(-c3ccccc3)c(F)c2)CC1` (configuration not stated) cannot be ordered by melting point: 56 to 58 °C for the first, 45 to 72 °C for the second.

Going from `CCNS(=O)(=O)c1cccc(NC(=O)c2cnn3c(C(F)F)cc(-c4ccc(C(F)(F)F)cc4)nc23)c1` to `O=C(Nc1nc(-c2cc(Cl)nc(Cl)c2)cs1)NS(=O)(=O)c1ccccc1C(F)(F)F`, the melting point rises from 259 °C to over 280 °C.

First: Nc1nc(CSCCN2CCN(C(c3ccccc3)c3ccccc3)CC2)cs1
Second: OCc1csc(N(c2ccccc2)c2ccccc2)n1
The melting point of the first is higher: 159 to 161 °C for the first, 136 to 138 °C for the second.

First: Cc1cc([N+](=O)[O-])ccc1N=C1SCC2(CCCC2)N1CC1CCCCC1
Second: O=[N+]([O-])c1ccc(N2CC(O)C2)c(F)c1
The melting point of the first is lower: 85 to 87 °C for the first, 130 to 132 °C for the second.

First: C=CCc1c(OCC(=O)O)ccc2c(CCc3nc(-c4ccc(Cl)cc4Cl)oc3C(C)C)noc12
Second: CCCc1c(OCCCCCOc2ccc3oc(C(=O)O)cc3c2)ccc2c1OCCC2=O
The melting point of the first is lower: 80 to 85 °C for the first, 192 to 195 °C for the second.

First: Cn1cc(-c2cccc(Cl)c2)c(=O)c(-c2cccc(C(F)(F)F)c2)c1
Second: NC(c1ccnc(F)c1)C(O)c1cccc(C(F)(F)F)c1 (configuration not stated)
The melting point of the first is higher: 133 to 135 °C for the first, 128 to 129 °C for the second.

First: CN1CC(CN2CCC(C(O)(c3ccc(F)cc3)c3ccc(F)cc3)CC2)OC1=O (configuration not stated)
Second: CC(=O)N(C(=O)N1CC(c2ccc(Cl)cc2)C(c2ccc(Cl)cc2)=N1)c1ccc(C(F)(F)F)cc1 (configuration not stated)
The melting point of the first is lower: 147 to 148 °C for the first, 166 to 168 °C for the second.

First: CCCCc1nc(C)c(CCC(=S)N(CC)CC)c(=O)n1Cc1ccc(-c2ccccc2-c2nnn[nH]2)cc1
Second: COc1ccccc1SCc1c(C(C)C)nc(C(C)C)c(CO)c1-c1ccc(F)cc1
The melting point of the first is lower: 77.8 to 81.1 °C for the first, 129 to 131 °C for the second.

First: O=C(O)C1NCCc2c1[nH]c1ccc(F)cc21 (configuration not stated)
Second: O=C1Nc2cccc(F)c2C(=O)N2CC[C@@H]12
The melting point of the first is higher: 237 to 238 °C for the first, 232 to 234 °C for the second.

First: CCCCOc1ncc(I)cc1C(N)=S
Second: CCCCCOc1cc(C(=O)O)c2c(c1)C(=O)CC2
The melting point of the first is lower: 140 to 148 °C for the first, 165 to 166 °C for the second.

Compared with `C[Si](C)(C)c1cccc(Cl)c1C(=O)O`, `O=C(CBr)Nc1ccc(I)cc1C(=O)c1ccccc1Cl` is higher in melting point: 129 to 131 °C for the first, 150 to 152 °C for the second.

First: CC1(C)N=C(c2ccc(N)cc2)CC1c1ccncc1 (configuration not stated)
Second: CC1(C)OC(=S)Nc2ccc(-c3ccc(F)cc3)cc21
The melting point of the first is lower: 175 to 178 °C for the first, 221 to 223 °C for the second.

First: COc1ccc(S(=O)(=O)n2ccc3cccc(-c4ccc(C#N)cc4)c32)cc1
Second: CS(=O)(=O)c1ccc(-c2nn(Cc3ccncc3)c(=O)cc2-c2ccc(F)cc2)cc1
The melting point of the first is lower: 164 to 166 °C for the first, 253 to 254 °C for the second.

Compared with `O=c1c2sccc2nc(CNc2ccccc2F)n1-c1ccccc1Cl`, `CN(C)C=C1N=C(c2ccccc2Cl)c2cc(I)ccc2N(C)C1=O` is higher in melting point: 175 to 176 °C for the first, 182 to 184 °C for the second.

First: O=C(O)C1=CC2=C(C(=O)C1)N1C=CC=CC1=CS2
Second: CC1=CCC2C(=O)N(c3ccccc3)C(=O)C2C1 (configuration not stated)
The melting point of the first is higher: 222 °C for the first, 92 to 93 °C for the second.

`O=c1cc(-c2ccncc2)nc2n1CCN2CCCc1c[nH]c2ccccc12` and `O=C(c1ccccc1)N1CCc2[nH]c3cc(-c4ccccc4)ccc3c2CC1` cannot be ordered by melting point: 218 to 220 °C for the first, 213 to 232 °C for the second.

First: CC(=O)C1CC(c2ccccc2)CCC1=O (configuration not stated)
Second: COC(=O)C#CC(=O)c1ccccc1
The melting point of the first is higher: 53 to 54 °C for the first, 31 to 35 °C for the second.

First: O=C1CCCC(=O)C1Br
Second: CCCC(=O)Nc1cccc(C(c2c(O)c3c(oc2=O)CCCCCC3)C2CC2)c1 (configuration not stated)
The melting point of the first is lower: 153 to 154 °C for the first, 222 to 224 °C for the second.

Compared with `CCc1cc2c(s1)-c1ccccc1C(CC)N2S(=O)(=O)c1ccc(O)cc1` (configuration not stated), `CCc1sc2c(c1S(=O)(=O)c1ccc(O)cc1)CC(Cc1ccccc1Cl)NC2` (configuration not stated) is higher in melting point: 119 to 122 °C for the first, 176 °C for the second.

First: CCCCS(=O)c1nc[nH]n1 (configuration not stated)
Second: CCOC(=O)C(=NOC)C1=CSCCS1
The melting point of the first is higher: 82 to 83 °C for the first, 65 to 67 °C for the second.

First: O=C(O)Cn1c(=O)c(=O)[nH]c2cc([N+](=O)[O-])c(-n3ccc(CN4CCC(c5ccccc5)CC4)c3)cc21
Second: O=C(C1CCN(c2ccncn2)CC1)N1CCN(Cc2ccccc2)CC1
The melting point of the first is higher: over 210 °C for the first, 107 to 108 °C for the second.

First: O=C(SCC1C(=O)OCC1c1ccc(Cl)cc1)c1ccccc1 (configuration not stated)
Second: N#Cc1ccc(OCc2ccc3c(c2)OCO3)cc1OC(C(=O)O)c1ccccc1 (racemic)
The melting point of the first is higher: 99 to 101 °C for the first, 68 to 70 °C for the second.

First: O=C1c2cc(C(F)(F)F)c(C(F)(F)F)cc2C(=O)c2cc3ccccc3cc21
Second: CS(=O)(=O)CCNc1nccc(Oc2ccc(NC(=O)c3cc(F)cc(N4CCCCC4)c3)c3ccccc23)n1
The melting point of the first is higher: over 280 °C for the first, 102 to 104 °C for the second.

First: COC(=O)c1ccc(/C=C/c2ccc(SC)cc2)nc1
Second: COC(=O)c1ccc(-n2cccn2)cc1
The melting point of the first is higher: 157 to 159 °C for the first, 107 to 109 °C for the second.

First: O=C(NCCO)c1cccc(-c2cc3c(ccn3Cc3ccc(Cl)cc3Cl)cn2)c1
Second: C=CC(=O)Oc1ccc(Cl)c2c1Sc1ccccc1C2
The melting point of the first is higher: 198 to 199 °C for the first, 164 to 165 °C for the second.

First: Cn1cnnc1COc1nn2c(-c3ccccc3F)nnc2cc1C1CCC1
Second: Cn1cnc(COc2nn3c(-c4ccccc4F)nnc3cc2C23CCC(C2)C3)n1
The melting point of the first is higher: 228 °C for the first, 170 to 172 °C for the second.

Compared with `CCC1(c2cccc(OC)c2)CCCCN(C)C1=O` (configuration not stated), `CCNC(=O)N1CCCC(n2nnnc2-c2cc(-c3cc(C(C)C)ccc3OC)c(O)cc2O)C1` (configuration not stated) is higher in melting point: 62 to 64 °C for the first, 223 to 226 °C for the second.

Compared with `COC(=O)COc1ccc(C(=O)CC2CCN(c3ccncc3)CC2)cc1`, `CN1CCN(C2=Nc3ccccc3Sc3ccccc32)C[C@@H]1CCc1ccccc1` is lower in melting point: 137 to 138 °C for the first, 44 to 54 °C for the second.

`CCCCCS(=O)(=O)NC(=O)CCc1ccc(OCCN2CCCC2=O)cc1Oc1ncc(C(F)(F)F)cc1Cl` and `O=C(O)CCCCCCCCCCCCCCCCCCC(=O)ON1C(=O)CCC1=O` cannot be ordered by melting point: 123 to 126 °C for the first, 122 to 124 °C for the second.

First: N#C[C@H](O)c1cccc(Oc2ccccc2)n1
Second: N[C@@H](Cc1ccccc1)C(O)(c1ccccc1)c1ccccc1
The melting point of the first is lower: 95 °C for the first, 141 to 142 °C for the second.

Compared with `CCOC(=O)c1sc(C)nc1OC(=S)N(C)C`, `Cc1c(NC(=O)CC(C)(C)C)c(C)c2c(c1C(C)O)OCC2c1ccc(C(C)C)cc1` (configuration not stated) is higher in melting point: 87 to 90 °C for the first, 156 to 157 °C for the second.

First: O=C1c2c([N+](=O)[O-])cccc2S(=O)(=O)N1CCO
Second: CS(=O)(=O)CS(=O)(=O)Cl
The melting point of the first is higher: 140 to 141 °C for the first, 109 to 111 °C for the second.
